Results as given in US20220033364A1, “INSECTICIDAL COMPOUNDS” (SYNGENTA CROP PROTECTION AG, priority 2018, published 2022).

Key:
Format in all cases: in vivo
Thrips tabaci = Thrips tabaci (onion thrips) feeding/contact activity; settings: foliar, 144 h, spray on sunflower leaf discs, mixed ages, 6 days after infestation
Method: Sunflower leaf discs were placed on agar in 24-well microtiter plates and sprayed with aqueous test solutions prepared from 10′000 ppm DMSO stock solutions. After drying the leaf discs were infested with a thrips population of mixed ages. The samples were assessed for mortality 6 days after infestation.

Plutella xylostella [1] = assay: Plutella xylostella (diamond back moth) artificial diet test, L2 larvae; settings: 120 h, 5 days after infestation, read-out: effect in at least one of the two categories (mortality or growth inhibition)
Method: 24-well microtiter plates with artificial diet were treated with aqueous test solutions prepared from 10′000 ppm DMSO stock solutions by pipetting. After drying, the plates were infested with L2 larvae (10 to 15 per well). The samples were assessed for mortality and growth inhibition in comparison to untreated samples 5 days after infestation.

Tetranychus urticae = Tetranychus urticae (two-spotted spider mite) feeding/contact activity; settings: foliar, 192 h, spray on bean leaf discs, mixed population (mobile stages), 8 days after infestation
Method: Bean leaf discs on agar in 24-well microtiter plates were sprayed with aqueous test solutions prepared from 10′000 ppm DMSO stock solutions. After drying the leaf discs were infested with a mite population of mixed ages. The samples were assessed for mortality on mixed population (mobile stages) 8 days after infestation.

Euschistus heros = Euschistus heros (neotropical brown stink bug) soybean leaf spray test; settings: 120 h, spray on soybean leaves, N2 nymphs, 5 days after infestation, read-out: effect in at least one of the two categories (mortality or growth inhibition)
Method: Soybean leaves on agar in 24-well microtiter plates were sprayed with aqueous test solutions prepared from 10′000 ppm DMSO stock solutions. After drying the leaves were infested with N2 nymphs. The samples were assessed for mortality and growth inhibition in comparison to untreated samples 5 days after infestation.

Diabrotica balteata = Diabrotica balteata (corn root worm) maize sprout spray test; settings: 96 h, spray on maize sprouts, L2 larvae, 4 days after infestation, read-out: effect in at least one of the two categories (mortality or growth inhibition)
Method: Maize sprouts placed onto an agar layer in 24-well microtiter plates were treated with aqueous test solutions prepared from 10′000 ppm DMSO stock solutions by spraying. After drying, the plates were infested with L2 larvae (6 to 10 per well). The samples were assessed for mortality and growth inhibition in comparison to untreated samples 4 days after infestation.

Spodoptera littoralis = Spodoptera littoralis (Egyptian cotton leaf worm) cotton leaf disc test; settings: foliar, 72 h, spray on cotton leaf discs, L1 larvae, 3 days after infestation, read-out: control (mortality, anti-feeding effect or growth inhibition)
Method: Cotton leaf discs were placed onto agar in 24-well microtiter plates and sprayed with aqueous test solutions prepared from 10′000 ppm DMSO stock solutions. After drying the leaf discs were infested with five L1 larvae. The samples were assessed for mortality, anti-feeding effect, and growth inhibition in comparison to untreated samples 3 days after infestation. Control of Spodoptera littoralis by a test sample is given when at least one of the categories mortality, anti-feedant effect, and growth inhibition is higher than the untreated sample.

Myzus persicae = Myzus persicae (green peach aphid) feeding/contact activity; settings: foliar, 144 h, spray on sunflower leaf discs, mixed ages, 6 days after infestation
Method: Sunflower leaf discs were placed onto agar in a 24-well microtiter plate and sprayed with aqueous test solutions prepared from 10′000 ppm DMSO stock solutions. After drying, the leaf discs were infested with an aphid population of mixed ages. The samples were assessed for mortality 6 days after infestation.

Plutella xylostella [2] = assay: Plutella xylostella (diamond back moth) artificial diet test, eggs; settings: 192 h, 8 days after infestation, read-out: effect in at least one of the two categories (mortality or growth inhibition)
Method: 24-well microtiter plates with artificial diet were treated with aqueous test solutions prepared from 10′000 ppm DMSO stock solutions by pipetting. After drying, Plutella eggs were pipetted through a plastic stencil onto a gel blotting paper and the plate was closed with it. The samples were assessed for mortality and growth inhibition in comparison to untreated samples 8 days after infestation.

Cc1cc(C2=NO[C@@](c3cc(Cl)c(F)c(Cl)c3)(C(F)(F)F)C2)ccc1C(=O)N(C(=O)C1CC1)[C@H]1CON(S(=O)(=O)C(F)F)C1 [Compound A1, N-(cyclopropanecarbonyl)-4-[(5S)-5-(3,5-dichloro-4-fluoro-phenyl)-5-(trifluoromethyl)-4H-isoxazol-3-yl]-N-[(4R)-2-(difluoromethylsulfonyl)isoxazolidin-4-yl]-2-methyl-benzamide]
≥ 80%: mortality at 200 ppm (Thrips tabaci) | percent effect (mortality or growth inhibition) at 200 ppm (Plutella xylostella [1]) | mortality at 200 ppm (Tetranychus urticae) | percent effect (mortality or growth inhibition) at 200 ppm (Euschistus heros) | percent effect (mortality or growth inhibition) at 200 ppm (Diabrotica balteata) | percent control (mortality, anti-feedant effect or growth inhibition) at 200 ppm (Spodoptera littoralis) | mortality at 200 ppm (Myzus persicae)

Cc1cc(C2=NO[C@@](c3cc(Cl)c(F)c(Cl)c3)(C(F)(F)F)C2)ccc1C(=O)N(COC1CC1)[C@H]1CON(S(=O)(=O)C(F)F)C1 [Compound A2, N-(cyclopropoxymethyl)-4-[(5S)-5-(3,5-dichloro-4-fluoro-phenyl)-5-(trifluoromethyl)-4H-isoxazol-3-yl]-N-[(4R)-2-(difluoromethylsulfonyl)isoxazolidin-4-yl]-2-methyl-benzamide]
≥ 80%: percent effect (mortality or growth inhibition) at 200 ppm (Plutella xylostella [2]) | percent effect (mortality or growth inhibition) at 200 ppm (Euschistus heros) | percent control (mortality, anti-feedant effect or growth inhibition) at 200 ppm (Spodoptera littoralis)
